The source of these data is patent US10294234B2, “HIV inhibitor compounds” (priority 2017, dated 2019).

A summary of the method of data set [1]:
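Dog, rat and human liver microsomes (0.5 mg/mL) with NADPH-regenerating cofactor; test compound 1 uM, duplicates. Timepoints 2, 12, 25, 45, 65 min; protein removed by centrifugation, supernatant analysed by LC/MS/MS. Clint from t1/2.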

For data set [2], the system named is HIV-1 (IIIB) in MT-4 cells. In words: MT-4 HIV assay. It counts as cell-based. The settings on record: Human immunodeficiency virus 1, MT4, 120 h; HIV-1 (IIIB), MT-4 cells, 5 days, Cell Titer Glo; read-out: EC50. In outline: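 MT-4 cells infected with HIV-1 IIIB (1:250 stock dilution) were incubated with 1:3 serially diluted compounds in RPMI with 10% FBS for 5 days at 37 °C. Cell Titer Glo luminescence was the readout. Plates included mock-infected wells, no-drug wells and 5 uM AZT controls.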

Where two headings read alike, the source gives them in different places.

With `COC(=O)N[C@H](C(=O)N[C@@H](Cc1ccc(C#Cc2ccc(N3CC4CCC(C3)N4C)nc2)cc1)[C@@H](O)CN(Cc1c(F)cc(-c2cnn(C(F)F)c2)cc1F)NC(=O)[C@@H](NC(=O)OC)C(C)(C)C(F)(F)F)C(C)(C)C(F)(F)F` [Example 168, Methyl ((5S,8S,9S,14S)-11-(4-(1-(difluoromethyl)-1H-pyrazol-4-yl)-2,6-difluorobenzyl)-16,16,16-trifluoro-9-hydroxy-15,15-dimethyl-8-(4-((6-(8-methyl-3,8-diazabicyclo[3.2.1]octan-3-yl)pyridin-3-yl)ethynyl)benzyl)-3,6,13-trioxo-5-(1,1,1-trifluoro-2-methylpropan-2-yl)-2-oxa-4,7,11,12-tetraazahexadecan-14-yl)carbamate], the “Human Pred Cl.” value in data set [1] (human, microsomes) amounted to 0.19 L/H/kg. For the same compound, the “Rat. Pred. Cl.” value in data set [1] (rat, microsomes) was 2.42 L/H/kg. For the same compound, the EC50 in data set [2] came out at 5.48 nM.

Turning to `COC(=O)N[C@H](C(=O)N[C@@H](Cc1ccc(C#Cc2ccc(N3C[C@@H]4C[C@H]3CN4C3COC3)nc2)cc1)[C@@H](O)CN(Cc1c(F)cc(-c2ccn(C(F)F)n2)cc1F)NC(=O)[C@@H](NC(=O)OC)C(C)(C)C(F)(F)F)C(C)(C)C(F)(F)F` [Example 174, Methyl ((5S,8S,9S,14S)-11-(4-(1-(difluoromethyl)-1H-pyrazol-3-yl)-2,6-difluorobenzyl)-16,16,16-trifluoro-9-hydroxy-15,15-dimethyl-8-(4-((6-((1S,4S)-5-(oxetan-3-yl)-2,5-diazabicyclo[2.2.1]heptan-2-yl)pyridin-3-yl)ethynyl)benzyl)-3,6,13-trioxo-5-(1,1,1-trifluoro-2-methylpropan-2-yl)-2-oxa-4,7,11,12-tetraazahexadecan-14-yl)carbamate], in data set [1] (human liver microsomes 0.5 mg/mL, 1 uM compound, NADPH), the “Human Pred Cl.” value came to 0.18 L/H/kg. For the same compound, the “Rat. Pred. Cl.” value in data set [1] (rat liver microsomes 0.5 mg/mL, 1 uM compound, NADPH) was found to be 0.69 L/H/kg. For the same compound, the concentration for a half-maximal effect (EC50) in data set [2] was 2.33 nM.

Take `COC(=O)N[C@H](C(=O)N[C@@H](Cc1ccc(C#Cc2ccc(N3CC4CC(C3)N4C3COC3)nc2)cc1)[C@@H](O)CN(Cc1c(F)cc(-c2ccccn2)cc1F)NC(=O)[C@@H](NC(=O)OC)C(C)(C)C(F)(F)F)C(C)(C)C(F)(F)F` [Example 175, Methyl ((5S,8S,9S,14S)-11-(2,6-difluoro-4-(pyridin-2-yl)benzyl)-16,16,16-trifluoro-9-hydroxy-15,15-dimethyl-8-(4-((6-(6-(oxetan-3-yl)-3,6-diazabicyclo[3.1.1]heptan-3-yl)pyridin-3-yl)ethynyl)benzyl)-3,6,13-trioxo-5-(1,1,1-trifluoro-2-methylpropan-2-yl)-2-oxa-4,7,11,12-tetraazahexadecan-14-yl)carbamate]: the “Human Pred Cl.” value in data set [1] (human, microsomes) is 0.67 L/H/kg. In addition, the “Rat. Pred. Cl.” value in data set [1] (rat, microsomes) was 0.7 L/H/kg. Also, the EC50 in data set [2] was 2.17 nM.

On to `COC(=O)N[C@H](C(=O)N[C@@H](Cc1ccc(C#Cc2ccc(N3CC4COCC(C3)N4C3COC3)nc2)cc1)[C@@H](O)CN(Cc1c(F)cc(-c2ccccn2)cc1F)NC(=O)[C@@H](NC(=O)OC)C(C)(C)C(F)(F)F)C(C)(C)C(F)(F)F` [Example 179, Methyl ((5S,8S,9S,14S)-11-(2,6-difluoro-4-(pyridin-2-yl)benzyl)-16,16,16-trifluoro-9-hydroxy-15,15-dimethyl-8-(4-((6-(9-(oxetan-3-yl)-3-oxa-7,9-diazabicyclo[3.3.1]nonan-7-yl)pyridin-3-yl)ethynyl)benzyl)-3,6,13-trioxo-5-(1,1,1-trifluoro-2-methylpropan-2-yl)-2-oxa-4,7,11,12-tetraazahexadecan-14-yl)carbamate], for which the “Human Pred Cl.” value in data set [1] (human, microsomes) is recorded as 0.33 L/H/kg. The “Rat. Pred. Cl.” value in data set [1] (rat, microsomes) amounted to 0.27 L/H/kg. For the same compound, the EC50 in data set [2] turned out to be 3.55 nM.

`COC(=O)N[C@H](C(=O)N[C@@H](Cc1ccc(C#Cc2ccc(N3CC4CCC(C3)N4C3COC3)nc2)cc1)[C@@H](O)CN(Cc1c(F)cc(-c2ccn(C(F)F)n2)cc1F)NC(=O)[C@@H](NC(=O)OC1COC1)C(C)(C)C)C(C)(C)C(F)(F)F` [Example 184, methyl ((2S)-1-(((2S,3S)-4-(1-(4-(1-(difluoromethyl)-1H-pyrazol-3-yl)-2,6-difluorobenzyl)-2-((S)-3,3-dimethyl-2-(((oxetan-3-yloxy)carbonyl)amino)butanoyl)hydrazinyl)-3-hydroxy-1-(4-((6-(8-(oxetan-3-yl)-3,8-diazabicyclo[3.2.1]octan-3-yl)pyridin-3-yl)ethynyl)phenyl)butan-2-yl)amino)-4,4,4-trifluoro-3,3-dimethyl-1-oxobutan-2-yl)carbamate]: the “Human Pred Cl.” value in data set [1] (human, microsomes) is less than 0.11 L/H/kg. Further, the “Rat. Pred. Cl.” value in data set [1] (rat, microsomes) is given as less than 0.18 L/H/kg. For the same compound, the EC50 in data set [2] was 3.66 nM.

As for `CCC(=O)N[C@H](C(=O)NN(Cc1c(F)cc(-c2ccn(C(F)F)n2)cc1F)C[C@H](O)[C@H](Cc1ccc(C#Cc2ccc(N3CC4CCC(C3)N4C3COC3)nc2)cc1)NC(=O)[C@@H](NC(=O)OC)C(C)(C)C(F)(F)F)C(C)(C)C` [Example 185, Methyl ((2S)-1-(((2S,3S)-4-(1-(4-(1-(difluoromethyl)-1H-pyrazol-3-yl)-2,6-difluorobenzyl)-2-((S)-3,3-dimethyl-2-propionamidobutanoyl)hydrazinyl)-3-hydroxy-1-(4-((6-(8-(oxetan-3-yl)-3,8-diazabicyclo[3.2.1]octan-3-yl)pyridin-3-yl)ethynyl)phenyl)butan-2-yl)amino)-4,4,4-trifluoro-3,3-dimethyl-1-oxobutan-2-yl)carbamate], in data set [1] (human, microsomes), the “Human Pred Cl.” value worked out at 0.32 L/H/kg. For the same compound, the “Rat. Pred. Cl.” value in data set [1] (rat, microsomes) is listed as 0.31 L/H/kg. For the same compound, the EC50 in data set [2] is 2.58 nM.

Turning to `COC(=O)N[C@H](C(=O)N[C@@H](Cc1ccc(C#Cc2cnc(N3CC4CCC(C3)N4C3COC3)nc2)cc1)[C@@H](O)CN(Cc1c(F)cc(-c2ccn(C(F)F)n2)cc1F)NC(=O)[C@@H](NC(=O)C1CC1)C(C)(C)C(F)(F)F)C(C)(C)C(F)(F)F` [Example 186, Methyl ((2S)-1-(((2S,3S)-4-(2-((S)-2-(cyclopropanecarboxamido)-4,4,4-trifluoro-3,3-dimethylbutanoyl)-1-(4-(1-(difluoromethyl)-1H-pyrazol-3-yl)-2,6-difluorobenzyl) hydrazinyl)-3-hydroxy-1-(4-((2-(8-(oxetan-3-yl)-3,8-diazabicyclo[3.2.1]octan-3-yl)pyrimidin-5-yl)ethynyl)phenyl)butan-2-yl)amino)-4,4,4-trifluoro-3,3-dimethyl-1-oxobutan-2-yl)carbamate], the “Human Pred Cl.” value in data set [1] (human, microsomes) was less than 0.11 L/H/kg. Moreover, the EC50 in data set [2] turned out to be 4.74 nM.

Turning to `COC(=O)N[C@H](C(=O)NN(Cc1c(F)cc(-c2ccn(C(F)F)n2)cc1F)C[C@H](O)[C@H](Cc1ccc(-c2cnc(N3CC4CCC(C3)N4C3COC3)nc2)cc1)NC(=O)[C@@H](NC(=O)OC)C(C)(C)C(F)(F)F)C(C)(C)C` [Example 192, methyl ((5S,8S,9S,14S)-11-(4-(1-(difluoromethyl)-1H-pyrazol-3-yl)-2,6-difluorobenzyl)-9-hydroxy-15,15-dimethyl-8-(4-(2-(8-(oxetan-3-yl)-3,8-diazabicyclo[3.2.1]octan-3-yl)pyrimidin-5-yl)benzyl)-3,6,13-trioxo-5-(1,1,1-trifluoro-2-methylpropan-2-yl)-2-oxa-4,7,11,12-tetraazahexadecan-14-yl)carbamate], in data set [1] (dog, microsomes), the “Dog. Pred. Cl.” value amounted to 1.04 L/H/kg. For the same compound, the “Human Pred Cl.” value in data set [1] (human, microsomes) amounted to 0.22 L/H/kg. Also, the “Rat. Pred. Cl.” value in data set [1] (rat, microsomes) worked out at 0.36 L/H/kg. Also, in data set [2], the 50% effective concentration (EC50) was 2.89 nM.

Turning to `COC(=O)N[C@H](C(=O)N[C@@H](Cc1ccc(-c2ccc(N3CC4CCC(C3)N4C3COC3)nc2)cc1)[C@@H](O)CN(Cc1c(F)cc(-c2ccn(CC(F)F)n2)cc1F)NC(=O)[C@@H](NC(=O)OC)C(C)(C)C(F)(F)F)C(C)(C)C(F)(F)F` [Example 195, methyl ((5S,8S,9S,14S)-11-(4-(1-(2,2-difluoroethyl)-1H-pyrazol-3-yl)-2,6-difluorobenzyl)-16,16,16-trifluoro-9-hydroxy-15,15-dimethyl-8-(4-(6-(8-(oxetan-3-yl)-3,8-diazabicyclo[3.2.1]octan-3-yl)pyridin-3-yl)benzyl)-3,6,13-trioxo-5-(1,1,1-trifluoro-2-methylpropan-2-yl)-2-oxa-4,7,11,12-tetraazahexadecan-14-yl)carbamate], in data set [1] (human, microsomes), the “Human Pred Cl.” value was 0.12 L/H/kg. Besides, the “Rat. Pred. Cl.” value in data set [1] (rat, microsomes) amounted to 0.52 L/H/kg. Also, the EC50 in data set [2] was 2.76 nM.

Turning to `COC(=O)N[C@H](C(=O)N[C@@H](Cc1ccc(-c2cnc(N3CC4CCC(C3)N4C3COC3)nc2)cc1)[C@@H](O)CN(Cc1c(F)cc(-c2ccn(CC(F)F)n2)cc1F)NC(=O)[C@@H](NC(=O)OC)C(C)(C)C(F)(F)F)C(C)(C)C(F)(F)F` [Example 197, Methyl ((5S,8S,9S,14S)-11-(4-(1-(2,2-difluoroethyl)-1H-pyrazol-3-yl)-2,6-difluorobenzyl)-16,16,16-trifluoro-9-hydroxy-15,15-dimethyl-8-(4-(2-(8-(oxetan-3-yl)-3,8-diazabicyclo[3.2.1]octan-3-yl)pyrimidin-5-yl)benzyl)-3,6,13-trioxo-5-(1,1,1-trifluoro-2-methylpropan-2-yl)-2-oxa-4,7,11,12-tetraazahexadecan-14-yl)carbamate], the “Human Pred Cl.” value in data set [1] (human, microsomes) is recorded as less than 0.11 L/H/kg. Moreover, the “Rat. Pred. Cl.” value in data set [1] (rat, microsomes) was found to be 0.32 L/H/kg. The EC50 in data set [2] was 2.61 nM.
